Source: the supplement of paper PMC8967900

What was measured:
Test in all cases: selective drug sensitivity score (sDSS, relative to normal bone marrow) (sDSS (score)); higher = more potent and effective on the cell line relative to normal bone marrow cells
Conditions in all cases: 72 h
697 = system: 697
PF-382 = system: PF-382
COG-LL-355h = system: COG-LL-355h
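Note: ALL cell lines in 384-well plates, five doses spanning 10,000-fold, each plate scaled between vehicle and 100 µmol/L benzalkonium chloride controls, sDSS an adapted area-under-curve metric.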

| Compound | selective drug sensitivity score 697 | selective drug sensitivity score (PF-382) | selective drug sensitivity score (COG-LL-355h) |
| --- | --- | --- | --- |
| C[C@]1(c2nc3c(C(N)=O)cccc3[nH]2)CCCN1 [Veliparib] (top concentration 10000 nM) | -1.08 | -4.08 | 2.82 |
| CC(C)NC(=O)COc1cccc(-c2nc(Nc3ccc4[nH]ncc4c3)c3ccccc3n2)c1 [KD025] (top concentration 5000 nM) | -0.66 | 1.04 | -0.86 |
| CCc1cnn2c(NCc3ccc[n+]([O-])c3)cc(N3CCCC[C@H]3CCO)nc12 [Dinaciclib] (top concentration 1000 nM) | -2.64 | -5.94 | -4.14 |
| CNCc1ccc(-c2[nH]c3cc(F)cc4c3c2CCNC4=O)cc1 [Rucaparib] (top concentration 10000 nM) | 6.42 | -0.58 | 0.92 |
| Cn1c(Nc2ccc(C(F)(F)F)cc2)nc2cc(Oc3ccnc(-c4ncc(C(F)(F)F)[nH]4)c3)ccc21 [NVP-RAF265] (top concentration 1000 nM) | 9.68 | 1.48 | 10.3 |
